Molecules are shown by their SMILES.

Type in all cases: organism-based
Conditions in all cases: in vivo

Data set [1] deals with Phaseolus vulgaris. Put plainly: Phytotoxicity against Phaseolus vulgaris (black beans) assessed as reduction in plant height applied pre-emergence relative to control. Also noted: scale not given: the % may be the effect or the level left.
The test system of data set [2] is Phaseolus vulgaris. Put plainly: Phytotoxicity against Phaseolus vulgaris (white beans) assessed as reduction in plant height applied pre-emergence relative to control. Also noted: scale not given: the % may be the effect or the level left.
Data set [3] concerns Phaseolus vulgaris. Put plainly: Phytotoxicity against Phaseolus vulgaris (white beans) assessed as crop injury.
Data set [4] relates to Phaseolus vulgaris. Put plainly: Phytotoxicity against Phaseolus vulgaris (cranberry beans) assessed as crop injury.
The subject of data set [5] is Phaseolus vulgaris. Put plainly: Phytotoxicity against Phaseolus vulgaris (kidney bean) assessed as crop injury.
Data set [6] relates to Phaseolus vulgaris. Put plainly: Phytotoxicity against Phaseolus vulgaris (pink beans) assessed as crop injury.
Data set [7] relates to Phaseolus vulgaris. Put plainly: Phytotoxicity against Phaseolus vulgaris (white beans) assessed as reduction in shoot dry weight applied pre-emergence relative to control. Set-up: scale not given: the % may be the effect or the level left.
Data set [8] has as its system Phaseolus vulgaris. Put plainly: Phytotoxicity against Phaseolus vulgaris (pinto beans) assessed as reduction in plant height applied pre-emergence relative to control. Also noted: scale not given: the % may be the effect or the level left.
The test system of data set [9] is Phaseolus vulgaris. Put plainly: Phytotoxicity against yellow eye bean assessed as reduction in plant height applied pre-emergence relative to control. Set-up: scale not given: the % may be the effect or the level left.
Data set [10] relates to Phaseolus vulgaris. Put plainly: Phytotoxicity against Phaseolus vulgaris (otebo beans) assessed as reduction in shoot dry weight applied pre-emergence relative to control. Also noted: scale not given: the % may be the effect or the level left.
The subject of data set [11] is Phaseolus vulgaris. Put plainly: Phytotoxicity against Phaseolus vulgaris (black beans) assessed as reduction in shoot dry weight applied pre-emergence relative to control. Set-up: scale not given: the % may be the effect or the level left.
Data set [12] deals with Phaseolus vulgaris. Put plainly: Phytotoxicity against Phaseolus vulgaris (otebo beans) assessed as reduction in plant height applied pre-emergence relative to control. Set-up: scale not given: the % may be the effect or the level left.
For data set [13], the system named is Phaseolus vulgaris. Put plainly: Phytotoxicity against Phaseolus vulgaris (pinto beans)s assessed as reduction in shoot dry weight applied pre-emergence relative to control. Set-up: scale not given: the % may be the effect or the level left.
The subject of data set [14] is Phaseolus vulgaris. Put plainly: Phytotoxicity against yellow eye bean assessed as reduction in shoot dry weight applied pre-emergence relative to control. Also noted: scale not given: the % may be the effect or the level left.
Data set [15] relates to Phaseolus vulgaris. Put plainly: Phytotoxicity against Phaseolus vulgaris (black beans) assessed as reduction in shoot dry weight relative to control. Set-up: scale not given: the % may be the effect or the level left.

Consider `C#CCN1C(=O)COc2cc(F)c(N3C(=O)C4=C(CCCC4)C3=O)cc21` [FLUMIOXAZIN], for which the Activity in the data set with Phaseolus vulgaris [1] is on record as 23%; with Phaseolus vulgaris [2] it was 28%; in the data set with Phaseolus vulgaris [3] it was 17%; in the data set with Phaseolus vulgaris [4] it was 4%.

Turning to `CCc1cccc(CC)c1N(COC)C(=O)CCl` [ALACHLOR], the Activity is given as 0.5% in the data set with Phaseolus vulgaris [5] and 6% in the data set with Phaseolus vulgaris [3].

With `CCc1cnc(C2=NC(C)(C(C)C)C(=O)N2)c(C(=O)O)c1` (stereo not given) [IMAZETHAPYR], the Activity is listed as 40% in the data set on Phaseolus vulgaris [1], 40% in the data set on Phaseolus vulgaris [2], 2% with Phaseolus vulgaris [5] and 11% with Phaseolus vulgaris [3].

Consider `CS(=O)(=O)NC(=O)c1cc(Oc2ccc(C(F)(F)F)cc2Cl)ccc1[N+](=O)[O-]` [FOMESAFEN], for which the Activity in the data set with Phaseolus vulgaris [5] is 1%; in the data set with Phaseolus vulgaris [6], 5%.

As to `CON(C)C(=O)Nc1ccc(Cl)c(Cl)c1` [LINURON], the Activity is 26% in the data set on Phaseolus vulgaris [7]; 24% in the data set with Phaseolus vulgaris [1]; 24% with Phaseolus vulgaris [8]; 24% with Phaseolus vulgaris [2]; 49% with Phaseolus vulgaris [3]; 24% in the data set with Phaseolus vulgaris [9]. The Activity in the data set with Phaseolus vulgaris [10] was found to be 26%; with Phaseolus vulgaris [11], 26%; in the data set on Phaseolus vulgaris [4], 4%; in the data set on Phaseolus vulgaris [12], 24%; in the data set on Phaseolus vulgaris [13], 26%; with Phaseolus vulgaris [14], 26%.

`CCc1cccc(C)c1N(C(=O)CCl)[C@@H](C)COC` [S-METOLACHLOR]: in the data set with Phaseolus vulgaris [15], the Activity stood at 16%.

(Values after ChEMBL document CHEMBL3044870, “Effect of clomazone on various market classes of dry beans” (Crop Prot, 2007).)
